The text below walks through data of PMC6689975, “Novel Cell Wall Antifungals Reveal a Special Synergistic Activity in pbr1 Mutants Resistant to the Glucan Synthesis Antifungals Papulacandins and Echinocandins” (Frontiers in Microbiology, 2019).

What all share (test): microbe, parasite or virus in culture
The subject of test [1] is T1, S. cerevisiae wild-type CVX12-3A.
T1 construct: CVX12-3A
Set-up: species or system whole yeast cells; macro tube broth dilution MIC in YEPD at 30 C, visual clearness of medium. The following applies: Saccharomyces cerevisiae, 48 h. How it is done: (§1) Standard YEPD (Yeast Extract, Peptone, Dextrose) ([Sherman, 1990]), YEPD+S (YEPD with 1.2M sorbitol), YES (Yeast Extract, Dextrose and Supplements of Adenine, Histidine, Leucine, Uracil and Lysine) ([Alfa et al., 1993]) and YES+S (YES with 1.2 M sorbitol) ([Ribas et al., 1991]; [Ishiguro et al., 1997]), media were used for determination of MIC values of the tested compounds. A stock solution of 10 mg/ml of each tested compounds was prepared in DMSO and serial dilutions in DMSO were prepared. The final concentration of DMSO was 2% in the YEPD medium. […] The serial dilutions of compounds were dispensed into test tubes with 1 ml of YEPD or YEPD+S to make final concentrations of 200, 100, 50, 25, 12.5, 6.26, 3.125, 1.6, 0.8 and 0.4 μg/ml. The tested yeast strains were previously grown in YEPD, YEPD+S, YES or YES+S agar plates at 30°C for 48 h. For inoculation of YEPD or YEPD+S macro test tubes a suspension of tested fungus was produced with 10^5 cfu/ml (cfu - colony forming unit). 10 μl of suspension was used for inoculation of each tube. After 48 h incubation at 30°C the tubes were checked. The MIC value is the lowest concentration of the tested compound that could inhibit the fungal growth and the medium remained clear. From each tube 10 μl culture was plated on YEPD agar medium to check the contamination. The MIC tests were carried out in three parallels. The screening of the first generation of isochromanones was carried out in YEPD and YEPD+S media (1E-16E). The fungal strains analyzed are: C. albicans wild-type ATCC 26555, SC5314 and ATCC 90028, S. cerevisiae wild-type CVX12-3A and pbr1-1 mutant, and S. pombe wild-type (972h^–), pbr1-8 mutant and pbr1-6 mutant. The bold numbers in Tables 4–6 indicate the more efficient compounds. […] The weak or moderate efficacy against the C. albicans wild-type strains was observed by some substances (3E, 4Z, 5Z, 10E, 15, and 16E). The efficiency toward the S. pombe pbr1-6 mutant strain was the highest inhibitory activity, except 7E, 11E, 12 and 14E. […] As regards the other S. pombe pbr1-8 mutant strain, the antifungal activity of the tested compounds was slightly lower, but the substances with the best activity are partly identical to the best compounds mentioned with pbr1-6, (i.e., 1E, 3E, 4Z, 5Z).

The subject of test [2] is T2, S. pombe wild-type 972 h-.
T2 construct: 972 h-
Details: species or system whole yeast cells; macro tube broth dilution MIC in YEPD at 30 C, visual clearness of medium. To be noted: Schizosaccharomyces pombe, 48 h. On the procedure:
as §1

Test [3] has as its system T1, S. cerevisiae wild-type CVX12-3A. Details: species or system whole yeast cells; micro-culture broth dilution MIC in YES at 30 C, turbidity, complete growth inhibition. To be noted: Saccharomyces cerevisiae.
The test system of test [4] is T2, S. pombe wild-type 972 h-. Details: species or system whole yeast cells; micro-culture broth dilution MIC in YES at 30 C, turbidity, complete growth inhibition. To be noted: Schizosaccharomyces pombe.

Converted amounts (≈) assume the structure as drawn. Like-named read-outs stand apart in the source and are kept apart here. Some results are limits rather than exact numbers.

Take `O=c1oc2ccc3ccccc3c2cc1-c1ccccc1CO` [compound 12]: the MIC in test [1] (YEPD medium) is 100 µg/mL (≈ 331 µM); in test [2] (YEPD medium), 200 µg/mL (≈ 662 µM); in test [3] (YES medium) it was above 200 µg/mL; in test [4] (YES medium) it was above 200 µg/mL.

For `CC[C@H](C)C[C@H](C)CCCCCCCCC(=O)N[C@H]1C[C@@H](O)[C@@H](NCCN)NC(=O)[C@@H]2[C@@H](O)CCN2C(=O)[C@H]([C@H](O)CCN)NC(=O)[C@H]([C@H](O)[C@@H](O)c2ccc(O)cc2)NC(=O)[C@@H]2C[C@@H](O)CN2C(=O)[C@H]([C@@H](C)O)NC1=O` [caspofungin], the MIC in test [1] (read-out: MIC) was 1 µg/mL (≈ 0.915 µM); in test [2] (read-out: MIC) it was 5 µg/mL (≈ 4.57 µM); in test [3] (read-out: MIC), 0.5 µg/mL (≈ 0.457 µM); in test [4] (read-out: MIC) it was 10 µg/mL (≈ 9.15 µM).

As for `O=c1oc2ccccc2cc1-c1ccccc1CO` [compound 15], the MIC in test [1] (YEPD medium) is 50 µg/mL (≈ 198 µM); in test [2] (YEPD medium), 100 µg/mL (≈ 396 µM); in test [3] (YES medium), above 200 µg/mL; in test [4] (YES medium), above 200 µg/mL.
